Data published in patent US20170020900A1, “METHODS FOR SCREENING ANTIMICROBIAL AND ANTIVIRAL COMPOUNDS AND USES THEREOF” (The General Hospital Corporation, priority 2006, published 2017).
Converted amounts (≈) assume the structure as drawn.

Columns and labels:
[1] = test system: E. faecalis strain MMH594; test: C. elegans-E. faecalis liquid infection (curing) assay in 96-well plates, worm survival; format: in vivo, Enterococcus faecalis; conditions: glp-4, sek-1 C. elegans infected with E. faecalis MMH594
Protocol: (§1) Worm survival was scored manually after 6 days of incubation. […] MICs were determined against E. faecalis strain MMH594 using 2-fold dilution in BHI media according to the broth microdilution protocol of the NCCLS (CLSI) (National Committee for Clinical Laboratory Standards, Approved Standard M7-A5; Methods for Dilution Antimicrobial Susceptibility Tests for Bacteria that Grow Aerobically, Villanova, Pa.: NCCLS (2000)).

E. faecalis [2] = test: Bacterial colonization of the nematode intestine (CFU per worm); format: in vivo, Enterococcus faecalis; conditions: 100% = 3.28 × 10^4 CFU/worm
Protocol: Infected worms were washed three times with M9 buffer containing 1 mM sodium azide. Approximately 10 worms were transferred to a 2 ml microcentrifuge tube and the volume was brought to 250 μl. Fifty μl of buffer was removed and plated to determine the number of external CFU.

[3] = test system: E. faecalis strain MMH594; test: MIC, 2-fold broth microdilution in BHI media (NCCLS); format: cell-based, Enterococcus faecalis; conditions: E30 value is at its aqueous solubility limit
Protocol: as §1

C. albicans strain MLR62 [4] = test: C. elegans-Candida killing assay, compound library screen in 96-well plates; format: in vivo, Candida albicans; conditions: positive control of the screen; <25% alive in PBS
Protocol: For testing the efficacy of chemical compounds, C. albicans strain MLR62 was inoculated into 2 ml of YPD and grown at 30° C. for 24 hours; 10 μl of the culture was spread on 35-mm tissue-culture plates (Falcon) containing brain heart infusion (BHI) agar (Difco) with kanamycin (45 μg/ml), ampicillin (100 μg/ml), and streptomycin (100 μg/ml). The plates were incubated at 30° C. for 24 hours. C. elegans animals at the L4 developmental stage (grown as detailed above under C. elegans liquid medium killing assays) were transferred from a lawn of E. coli HB101 onto C. albicans lawns on BHI medium, incubated at 25° C. for 30 minutes, and then pipetted in 50 μl into 96-well plate wells that contained 100 μl liquid media (79% of M9 buffer, 20% BHI media, 2 μM cholesterol and 90 μg/ml kanamycin). C. elegans glp-4; sek-1 nematodes were pipetted into 96-well plates that contained compounds from chemical libraries. Library 1361 was assembled by Biomol and contains well-characterized compounds that affect many different aspects of cellular pathways. The NINDS custom collection (plates 501-503) was put together by MicroSource Discovery Systems for the National Institute of Neurological Disorders and Stroke (NINDS), the Huntington's Disease Society of America (HDSA), the Amyotrophic Lateral Sclerosis (ALS) Association, and the Hereditary Disease Foundation (HDF). It mostly contains FDA approved drugs. The Prestwick library (plate 1569) contains compounds that are known to be safe and bioactive in humans. The majority of the compounds are marketed drugs.
On day 6, nematodes were evaluated for survival, filament formation and optical density. The plates were incubated at 25° C. and examined on day 6 for survival with a Nikon SMZ645 dissecting microscope. In addition, images were obtained using a CellWorx High Content Cell Analysis System (Applied Precision) at 4× magnification. Dead worms were counted but not removed. […] Each compound was also scored by the number of dead worms in the well that developed hyphea. […] Compounds were categorized as having a minimal effect on filament formation if 25-75% of the dead worms developed hyphea.
Approximately 25 nematodes were used to analyze each chemical compound tested. Two controls were used in all plates. […] In this pilot screen, we considered a compound as a “hit” when survival in the compound well with was 50% and above of the median survival of the control wells. Depending on the compound library, the final concentration of the compounds was 33.33 μg/ml, 13.33 μg/ml, or […].

C. albicans strain MLR62 [5] = test: C. elegans liquid medium killing assay with established antifungals; format: in vivo, Candida albicans
Protocol: (§2) Candida strains were inoculated in 2 ml of YPD and grown at 30° C. for 24 hours. Lawns were prepared by spreading 10 μl of each culture on 35 mm tissue-culture plates (Falcon) containing solid brain heart infusion (BHI) media (Difco) with kanamycin (45 μg/ml), ampicillin (100 μg/ml), and streptomycin (100 μg/ml). The plates were incubated at 30′C for 24 hours followed by 25° C. for 24 hours. glp-4; sek-1 and glp-4 worms were grown at 15° C. until they reached the L2 stage, and then they were transferred to 25° C. for 24 h. N2 wild-type worms were grown at 15° C. for 72 h, until they reached the L4 stage. Approximately 100 worms were picked onto each lawn and allowed to feed for 30 minutes to 2 hours. The worms were washed off the plates with M9 buffer and allowed to crawl on unseeded BHI plates to remove yeast cells from their cuticles. Roughly 70-80 worms were then picked to wells in a six-well microtiter dish that contained 1.5 ml liquid medium of 79% M9 buffer, 20% BHI, 2 μM cholesterol and 90 μg/ml kanamycin. The plates were incubated at 25° C. overnight and then examined at 24-hour intervals for survival.
To develop a system that allows high throughput screening for antifungal compounds, we first evaluated whether established antifungals prolong the survival of nematodes infected with Candida spp. For this, we used different C. albicans isolates as well as non-albicans strains, including those used as reference strains by clinical microbiology laboratories ([…], N. C. F. C. L. Methods for antifungal disk diffusion susceptibility testing of yeasts; approved guideline M44-A. (National Committee for Clinical Laboratory Standards, Wayne, Pa., 2004)).

C. albicans MLR62 = test: Fungal burden within C. elegans (cfu per worm); format: in vivo, Candida albicans; conditions: for concentration of Candida cfu in the nematodes: data not shown
Protocol: The number of C. albicans colony forming units in C. elegans was quantified based on the protocol detailed by Tang et al., Infect. Immun. 73:8219 (2005) and Garsin et al., Proc. Natl. Acad Sci. USA 98:10892 (2001) with a few modifications. C. albicans strain MLR62 lawns were prepared on BHI as described above. C. elegans glp-4; sek-1 worms were exposed to the lawns for 30 minutes and then moved to liquid media and incubated at 25° C. in the presence or absence of antifungal agents. At appropriate time points, 3 groups of 10 worms each were washed twice in 8 μl drops of M9 buffer on BHI agar plates, in order to remove surface Candida. Each group of 10 worms was then disrupted using a Pellet Pestle Motor (Kontes) and plated on YPD agar containing kanamycin (45 μg/ml), ampicillin (100 μg/ml), and streptomycin (100 μg/ml). The plates were incubated for 48 hours at 30′C and colonies were counted.

DAY185 = conditions: Candida strain DAY185; cited from earlier work
C. albicans ATCC#90028 = conditions: cited from earlier work
C. krusei ATCC#6258 [6] = conditions: cited from earlier work
[7] = test system: C. parapsilosis ATCC#22019; conditions: cited from earlier work
E. faecalis [8] = test: Curing of a nematode E. faecalis infection on solid medium by antibiotic treatment; format: in vivo, Enterococcus faecalis; conditions: worms transferred to E. faecium lawns
Protocol: FIGS. 11A-11D show the curing of a nematode E. faecalis infection on solid medium by antibiotic treatment. FIG. 11A is a graph depicting the Kaplan-Meier survival curves of wild-type N2 C. elegans feeding continuously on lawns of E. faecalis (Efs) V583 (▴) or E. faecium (Efm) DO (▾). Nematodes feeding for 24 hours on E. faecalis and subsequently transferred to lawns of E. faecium (▪) die with an LT50 of 14.9 days. Error bars equal SEM. […] FIG. 11C is a graph showing the antibiotic concentrations required to promote rescue of E. faecalis infected N2 nematodes. […] Error bars are standard deviations. […] Error bars equal SEM.
N2 or glp-4(bn2ts); sek-1(km4) worms were synchronized by isolating eggs from gravid adults, hatching the eggs overnight in M9 buffer, and plating L1-stage worms onto lawns of E. coli on NGM agar media. Worms were grown to sterile, young adults by incubation at 25° C. for 48 to 52 hours, washed off the plates with M9 buffer, resuspended and washed in M9 buffer, deposited onto lawns of E. faecalis grown on BHI agar plates containing kanamycin at 80 μg/ml to inhibit E. coli growth, incubated for 8 to 12 hours at 25° C., and resuspended in M9 buffer. For assays using agar media, approximately 35 infected worms were washed and then deposited onto 35 mm plates containing the appropriate antibiotics. Plates were incubated at 25° C. and scored for worm survival at regular intervals. Worms were considered dead if they were unresponsive to touch with a platinum wire pick. For the initial assays using liquid media, approximately 80 infected worms were transferred to wells of a 6 well plate containing 2 ml media consisting of 10% BHI 80 μg/ml kanamycin, 90% M9 buffer, and the appropriate antibiotics. The plates were incubated without agitation at 25° C. and 80-85% relative humidity.

C. krusei ATCC#6258 [9] = format: in vivo; conditions: fluconazole 32 μg/ml, fluconazole-resistant strain
Protocol: as §2
To develop a system that allows high throughput screening for antifungal compounds, we first evaluated whether established antifungals prolong the survival of nematodes infected with Candida spp. […]

[10] = caspofungin 8 μg/ml, amphotericin B 16 μg/ml, fluconazole 32 μg/ml, FIG. 17A

Q: Which “Therapeutic Concentration” value [1] does the source give for `O=c1oc2ccccc2c(O)c1/C(=C/C(=N/Nc1ccccc1)c1ccc(-c2ccc(Br)cc2)cc1)c1ccccc1` [Compound G1] here?
A: The value was 25 µg/mL.

Q: What about the “Fold Survival vs untreated” value ([1]; untreated = 24% survival) of the same molecule?
A: The value was 3.3.

Q: What about the “Amt. Colonization vs untreated” value (E. faecalis [2]) of the same molecule?
A: The value was 6%.

Q: And the MIC [3]?
A: The MIC was 31.3 µg/mL (≈ 51 µM).

Q: For `CC[C@H](C)C[C@H](C)CCCCCCCCC(=O)N[C@H]1C[C@@H](O)[C@@H](NCCN)NC(=O)[C@@H]2[C@@H](O)CCN2C(=O)[C@H]([C@H](O)CCN)NC(=O)[C@H]([C@H](O)[C@@H](O)c2ccc(O)cc2)NC(=O)[C@@H]2C[C@@H](O)CN2C(=O)[C@H]([C@@H](C)O)NC1=O` [caspofungin], which “nematode survival at day 6” value (C. albicans strain MLR62 [4]) is on record?
A: Its value is greater than 75%.

Q: What about the “prolongation of nematode survival” value (C. albicans strain MLR62 [5]; [10]) of the same molecule?
A: The value was “effective”.

Q: What about the “lowest effective concentration (effective at concentrations as low as)” value (C. albicans strain MLR62 [5]; nematode survival, P<0.0001) of the same molecule?
A: Its value is 1 µg/mL.

Q: And the “fungal burden, average colony-forming units” value (C. albicans MLR62; 8 μg/ml, untreated 170.8±63.5 cfu per worm, P<0.001)?
A: Its value is 0.3±0.2 cfu per worm.

Q: And the MIC (DAY185)?
A: Its MIC is 2 µg/mL (≈ 1.83 µM).

Q: What about the MIC (C. albicans ATCC#90028) of the same molecule?
A: The MIC was 1 μg/ml for caspofungin.

Q: And the MIC (C. krusei ATCC#6258 [6])?
A: The MIC was 0.5 to 2 µg/mL.

Q: And the MIC [7]?
A: The MIC was 0.5 to 2 µg/mL.

Q: Which “prolongation of nematode survival” value (C. albicans strain MLR62 [5]; in vivo) does the source give for `C[C@@H]1[C@H](O)[C@@H](C)/C=C/C=C/C=C/C=C/C=C/C=C/C=C/[C@H](O[C@@H]2O[C@H](C)[C@@H](O)[C@H](N)[C@@H]2O)C[C@@H]2O[C@](O)(C[C@@H](O)C[C@@H](O)[C@H](O)CC[C@@H](O)C[C@@H](O)CC(=O)O[C@H]1C)C[C@H](O)[C@H]2C(=O)O` [amphotericin B] here?
A: The value was “effective”.

Q: What about the “concentration of Candida cfu in the nematodes” value (C. albicans MLR62) of the same molecule?
A: The value was “significantly decreased”.

Q: And the MIC (DAY185)?
A: Its MIC is 0.5 µg/mL (≈ 0.541 µM).

Q: What about the MIC (C. krusei ATCC#6258 [6]) of the same molecule?
A: The MIC was “MIC: 2 μg/ml for amphotericin B^d,”.

Q: What about the MIC [7] of the same molecule?
A: Its MIC is “MIC: 2 μg/ml for amphotericin B^d,”.

Q: Which “survival of E. faecalis infected N2 C. elegans, p (Kaplan-Meier)” value (shortened to “survival … p (Kaplan-Meier)”) (E. faecalis [8]; tetracycline 0.08 μg/ml) does the source give for `CN(C)[C@@H]1C(O)=C(C(N)=O)C(=O)[C@@]2(O)C(O)=C3C(=O)c4c(O)cccc4[C@@](C)(O)[C@H]3C[C@@H]12` [Tetracycline] here?
A: Its value is 0.56.

Q: What about the “survival … p (Kaplan-Meier)” value (E. faecalis [8]; tetracycline 0.4 μg/ml) of the same molecule?
A: Its value is less than 0.06.

Q: And the “survival … p (Kaplan-Meier)” value (E. faecalis [8]; tetracycline 2 μg/ml)?
A: The value was less than 0.0014.

Q: What about the “survival … p (Kaplan-Meier)” value (E. faecalis [8]; tetracycline 10 μg/ml) of the same molecule?
A: The value was less than 0.0001.

Q: Which results are given for `OC(Cn1cncn1)(Cn1cncn1)c1ccc(F)cc1F` [fluconazole]?
A: prolongation of nematode survival (C. albicans strain MLR62 [5]; [10]): effective; effect on nematode survival (C. krusei ATCC#6258 [9]): no effect; concentration of Candida cfu in the nematodes (C. albicans MLR62): significantly decreased; MIC (DAY185): 2 µg/mL (≈ 6.53 µM); MIC (C. krusei ATCC#6258 [6]): 32 µg/mL (≈ 104 µM); MIC [7]: 2 µg/mL (≈ 6.53 µM)
